Reference: PubChem BioAssay AID1259407 (Chemical Carcinogenesis Research Information System (CCRIS), 2018)
Activity calls are given as the source filed them. The rule behind the calls is not given here.

System: CCRIS mutagenicity, Ames/micronucleus/aberration tests
Experiment: CCRIS mutagenicity studies

Measured: mutagenic call

C=CCc1ccc2c(c1)OCO2
active: Test System: AMES SALMONELLA TYPHIMURIUM, Strain/Indicator: TA1535, Metabolic Activation: RAT, LIVER, S-9, AROCLOR 1254, PAPS, Method: STANDARD PLATE active; positive | Test System: CHINESE HAMSTER V-79, Strain/Indicator: V-79/6-THIOGUANINE, Metabolic Activation: NONE, Method: REPLATING active; positive | Test System: MOUSE LYMPHOMA, Strain/Indicator: L5178Y (TK+/+)/OUABAIN, Metabolic Activation: NONE, Method: SUSPENSION/PLATE active; positive | Test System: MOUSE LYMPHOMA, Strain/Indicator: L5178Y (TK+/+)/OUABAIN, Metabolic Activation: RAT LIVER S-9, AROCLOR 1254, Method: SUSPENSION/PLATE active; positive | Test System: MOUSE LYMPHOMA, Strain/Indicator: L5178Y (TK+/-)/TRIFLUROTHYMIDINE, Metabolic Activation: NONE, Method: SUSPENSION/PLATE active; positive | Test System: MOUSE LYMPHOMA, Strain/Indicator: L5178Y (TK+/TK-), Metabolic Activation: RAT, LIVER, S-9, Method: SUSPENSION/PLATE active; positive | Test System: UDS RAT HEPATOCYTES, Strain/Indicator: THY INCORP, Metabolic Activation: NONE, Method: LIQUID SCINTILLATION COUNTING active; positive
inactive: Test System: AMES SALMONELLA TYPHIMURIUM, Strain/Indicator: TA97, Metabolic Activation: HAMSTER LIVER S-9, AROCLOR 1254 (10%), Method: PREINCUBATION inactive; negative | Test System: AMES SALMONELLA TYPHIMURIUM, Strain/Indicator: TA97, Metabolic Activation: HAMSTER LIVER S-9, AROCLOR 1254 (30%), Method: PREINCUBATION inactive; negative | Test System: AMES SALMONELLA TYPHIMURIUM, Strain/Indicator: TA97, Metabolic Activation: NONE, Method: PREINCUBATION inactive; negative | Test System: AMES SALMONELLA TYPHIMURIUM, Strain/Indicator: TA97, Metabolic Activation: NONE, Method: STANDARD PLATE inactive; negative | Test System: AMES SALMONELLA TYPHIMURIUM, Strain/Indicator: TA97, Metabolic Activation: RAT LIVER S-9, AROCLOR 1254 (10%), Method: PREINCUBATION inactive; negative | Test System: AMES SALMONELLA TYPHIMURIUM, Strain/Indicator: TA97, Metabolic Activation: RAT LIVER S-9, AROCLOR 1254 (30%), Method: PREINCUBATION inactive; negative | Test System: AMES SALMONELLA TYPHIMURIUM, Strain/Indicator: TA97, Metabolic Activation: S-9, Method: STANDARD PLATE inactive; negative | Test System: AMES SALMONELLA TYPHIMURIUM, Strain/Indicator: TA98, Metabolic Activation: HAMSTER LIVER S-9, AROCLOR 1254 (10%), Method: PREINCUBATION inactive; negative | Test System: AMES SALMONELLA TYPHIMURIUM, Strain/Indicator: TA98, Metabolic Activation: HAMSTER LIVER S-9, AROCLOR 1254 (30%), Method: PREINCUBATION inactive; negative | Test System: AMES SALMONELLA TYPHIMURIUM, Strain/Indicator: TA98, Metabolic Activation: NONE, Method: PREINCUBATION inactive; negative | Test System: AMES SALMONELLA TYPHIMURIUM, Strain/Indicator: TA98, Metabolic Activation: NONE, Method: STANDARD PLATE inactive; negative | Test System: AMES SALMONELLA TYPHIMURIUM, Strain/Indicator: TA98, Metabolic Activation: RAT LIVER S-9, AROCLOR 1254 (10%), Method: PREINCUBATION inactive; negative | Test System: AMES SALMONELLA TYPHIMURIUM, Strain/Indicator: TA98, Metabolic Activation: RAT LIVER S-9, AROCLOR 1254 (30%), Method: PREINCUBATION inactive; negative | Test System: AMES SALMONELLA TYPHIMURIUM, Strain/Indicator: TA98, Metabolic Activation: RAT, LIVER, S-9, AROCLOR 1254, Method: STANDARD PLATE inactive; negative | Test System: AMES SALMONELLA TYPHIMURIUM, Strain/Indicator: TA98, Metabolic Activation: S-9, Method: STANDARD PLATE inactive; negative | Test System: AMES SALMONELLA TYPHIMURIUM, Strain/Indicator: TA100, Metabolic Activation: HAMSTER LIVER S-9, AROCLOR 1254 (10%), Method: PREINCUBATION inactive; negative | Test System: AMES SALMONELLA TYPHIMURIUM, Strain/Indicator: TA100, Metabolic Activation: HAMSTER LIVER S-9, AROCLOR 1254 (30%), Method: PREINCUBATION inactive; negative | Test System: AMES SALMONELLA TYPHIMURIUM, Strain/Indicator: TA100, Metabolic Activation: NONE, Method: PREINCUBATION inactive; negative | Test System: AMES SALMONELLA TYPHIMURIUM, Strain/Indicator: TA100, Metabolic Activation: NONE, Method: STANDARD PLATE inactive; negative | Test System: AMES SALMONELLA TYPHIMURIUM, Strain/Indicator: TA100, Metabolic Activation: RAT LIVER S-9, AROCLOR 1254 (10%), Method: PREINCUBATION inactive; negative | Test System: AMES SALMONELLA TYPHIMURIUM, Strain/Indicator: TA100, Metabolic Activation: RAT LIVER S-9, AROCLOR 1254 (30%), Method: PREINCUBATION inactive; negative | Test System: AMES SALMONELLA TYPHIMURIUM, Strain/Indicator: TA100, Metabolic Activation: RAT, LIVER, S-9, AROCLOR 1254, Method: STANDARD PLATE inactive; negative | Test System: AMES SALMONELLA TYPHIMURIUM, Strain/Indicator: TA100, Metabolic Activation: S-9, Method: STANDARD PLATE inactive; negative | Test System: AMES SALMONELLA TYPHIMURIUM, Strain/Indicator: TA102, Metabolic Activation: NONE, Method: STANDARD PLATE inactive; negative | Test System: AMES SALMONELLA TYPHIMURIUM, Strain/Indicator: TA102, Metabolic Activation: RAT LIVER S-9, PHENOBARBITAL AND 5,6-BENZOFLAVONE, Method: STANDARD PLATE inactive; negative | Test System: AMES SALMONELLA TYPHIMURIUM, Strain/Indicator: TA102, Metabolic Activation: S-9, Method: STANDARD PLATE inactive; negative | Test System: AMES SALMONELLA TYPHIMURIUM, Strain/Indicator: TA1535, Metabolic Activation: HAMSTER LIVER S-9, AROCLOR 1254 (10%), Method: PREINCUBATION inactive; negative | Test System: AMES SALMONELLA TYPHIMURIUM, Strain/Indicator: TA1535, Metabolic Activation: HAMSTER LIVER S-9, AROCLOR 1254 (30%), Method: PREINCUBATION inactive; negative | Test System: AMES SALMONELLA TYPHIMURIUM, Strain/Indicator: TA1535, Metabolic Activation: NONE, Method: PREINCUBATION inactive; negative | Test System: AMES SALMONELLA TYPHIMURIUM, Strain/Indicator: TA1535, Metabolic Activation: NONE, Method: STANDARD PLATE inactive; negative | Test System: AMES SALMONELLA TYPHIMURIUM, Strain/Indicator: TA1535, Metabolic Activation: PAPS, Method: STANDARD PLATE inactive; negative | Test System: AMES SALMONELLA TYPHIMURIUM, Strain/Indicator: TA1535, Metabolic Activation: RAT LIVER S-9, AROCLOR 1254 (10%), Method: PREINCUBATION inactive; negative | Test System: AMES SALMONELLA TYPHIMURIUM, Strain/Indicator: TA1535, Metabolic Activation: RAT LIVER S-9, AROCLOR 1254 (30%), Method: PREINCUBATION inactive; negative | Test System: AMES SALMONELLA TYPHIMURIUM, Strain/Indicator: TA1535, Metabolic Activation: RAT, LIVER, S-9, AROCLOR 1254, Method: STANDARD PLATE inactive; negative | Test System: AMES SALMONELLA TYPHIMURIUM, Strain/Indicator: TA1537, Metabolic Activation: NONE, Method: STANDARD PLATE inactive; negative | Test System: AMES SALMONELLA TYPHIMURIUM, Strain/Indicator: TA1537, Metabolic Activation: RAT, LIVER, S-9, AROCLOR 1254, Method: STANDARD PLATE inactive; negative | Test System: AMES SALMONELLA TYPHIMURIUM, Strain/Indicator: TA1538, Metabolic Activation: NONE, Method: STANDARD PLATE inactive; negative | Test System: AMES SALMONELLA TYPHIMURIUM, Strain/Indicator: TA1538, Metabolic Activation: RAT, LIVER, S-9, AROCLOR 1254, Method: STANDARD PLATE inactive; negative | Test System: AMES SALMONELLA TYPHIMURIUM, Strain/Indicator: TA2638, Metabolic Activation: RAT LIVER S-9, PHENOBARBITAL AND 5,6-BENZOFLAVONE, Method: STANDARD PLATE inactive; negative | Test System: CHINESE HAMSTER OVARY, Strain/Indicator: CHO/6-THIOGUANINE, Metabolic Activation: HAMSTER EMBRYO CELL-MEDIATED inactive; negative | Test System: CHINESE HAMSTER OVARY, Strain/Indicator: CHO/6-THIOGUANINE, Metabolic Activation: NONE inactive; negative | Test System: CHINESE HAMSTER OVARY, Strain/Indicator: CHO/OUABAIN, Metabolic Activation: HAMSTER EMBRYO CELL-MEDIATED inactive; negative | Test System: CHINESE HAMSTER OVARY, Strain/Indicator: CHO/OUABAIN, Metabolic Activation: NONE inactive; negative | Test System: CHINESE HAMSTER V-79, Strain/Indicator: V-79 (HGPRT)/6-THIOGUANINE, Metabolic Activation: NONE inactive; negative | Test System: CHINESE HAMSTER V-79, Strain/Indicator: V-79 (HGPRT)/6-THIOGUANINE, Metabolic Activation: RAT, LIVER, S-9, PHENOBARBITAL AND BETA-NAPHTHOFLAVONE inactive; negative | Test System: CHINESE HAMSTER V-79, Strain/Indicator: V-79/OUABAIN, Metabolic Activation: HAMSTER EMBRYO CELL-MEDIATED inactive; negative | Test System: CHINESE HAMSTER V-79, Strain/Indicator: V-79/OUABAIN, Metabolic Activation: NONE inactive; negative | Test System: CHINESE HAMSTER V-79, Strain/Indicator: V-79/OUABAIN, Metabolic Activation: RAT, LIVER, S-15, PHENOBARBITAL AND 5,6-BENZOFLAVONE inactive; negative | Test System: E. COLI, Strain/Indicator: WP2 (PKM101), Metabolic Activation: RAT LIVER S-9, PHENOBARBITAL AND 5,6-BENZOFLAVONE, Method: STANDARD PLATE inactive; negative | Test System: E. COLI, Strain/Indicator: WP2 UVRA (PKM101), Metabolic Activation: RAT LIVER S-9, PHENOBARBITAL AND 5,6-BENZOFLAVONE, Method: STANDARD PLATE inactive; negative | Test System: MOUSE LYMPHOMA, Strain/Indicator: L5178Y (TK+/-)/TRIFLUROTHYMIDINE, Metabolic Activation: RAT LIVER S-9, AROCLOR 1254, Method: SUSPENSION/PLATE inactive; negative | Test System: MOUSE LYMPHOMA, Strain/Indicator: L5178Y (TK+/TK-), Metabolic Activation: NONE, Method: SUSPENSION/PLATE inactive; negative
